{
  "source": "paper PMC4281022",
  "about": "(Journal of medicinal chemistry, 2013)",
  "key": {"[1]": {"molecular_target": "T1, human CB1 (Homo sapiens, UniProt P21554)", "T1 sequence (P21554 whole entry)": "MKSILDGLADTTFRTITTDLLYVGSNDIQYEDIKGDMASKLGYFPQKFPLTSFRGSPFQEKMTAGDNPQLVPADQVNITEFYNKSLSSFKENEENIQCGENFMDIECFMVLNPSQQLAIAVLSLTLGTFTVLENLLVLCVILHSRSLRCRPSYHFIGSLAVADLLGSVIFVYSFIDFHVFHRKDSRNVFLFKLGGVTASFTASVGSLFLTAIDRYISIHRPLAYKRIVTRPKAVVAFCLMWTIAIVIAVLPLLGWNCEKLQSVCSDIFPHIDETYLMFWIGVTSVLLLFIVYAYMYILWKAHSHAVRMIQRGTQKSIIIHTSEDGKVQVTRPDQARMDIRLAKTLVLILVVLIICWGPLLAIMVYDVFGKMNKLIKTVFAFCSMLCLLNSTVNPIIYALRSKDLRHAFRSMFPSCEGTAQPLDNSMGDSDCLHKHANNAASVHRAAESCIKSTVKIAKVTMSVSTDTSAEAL", "experiment": "[3H]CP55940 radioligand displacement at CB1, membranes of CHO-K1 cells", "type": "binding", "details": "ratio of Ki values"}, "[2]": {"molecular_target": "CB1 receptor (Mus musculus, UniProt P47746)", "sequence (P47746 whole entry)": "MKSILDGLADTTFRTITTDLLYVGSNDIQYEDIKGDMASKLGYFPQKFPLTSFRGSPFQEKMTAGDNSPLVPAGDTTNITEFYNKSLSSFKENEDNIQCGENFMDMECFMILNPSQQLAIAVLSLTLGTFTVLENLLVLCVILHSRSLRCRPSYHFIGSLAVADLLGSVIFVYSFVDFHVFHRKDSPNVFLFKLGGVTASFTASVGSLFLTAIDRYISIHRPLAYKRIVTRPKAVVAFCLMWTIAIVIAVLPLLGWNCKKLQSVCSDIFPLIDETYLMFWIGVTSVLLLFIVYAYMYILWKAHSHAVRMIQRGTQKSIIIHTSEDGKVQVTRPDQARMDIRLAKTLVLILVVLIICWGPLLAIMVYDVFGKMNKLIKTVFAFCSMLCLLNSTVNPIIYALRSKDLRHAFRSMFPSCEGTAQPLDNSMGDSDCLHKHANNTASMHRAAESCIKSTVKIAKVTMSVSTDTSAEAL", "experiment": "Tetrad test: attenuation of central effects of Δ^9-THC", "type": "in vivo", "details": "10 mg/kg oral, ICR mice"}, "[3]": {"molecular_target": "T1, human CB1", "experiment": "CB1 calcium mobilization assay, antagonist apparent affinity", "type": "cell-based"}},
  "note": "Entries after “also recorded” stand apart in the source; their conditions may differ.",
  "data": [
    {"molecule": "CCCCC(=O)NC1CCN(c2ncnc3c2nc(-c2ccccc2Cl)n3-c2ccc(Cl)cc2)CC1", "note": "[Compound 9, N-{1-[8-(2-Chlorophenyl)-9-(4-chlorophenyl)-9H-purin-6-yl]piperidin-4-yl}pentanamide]", "values": [
      {"measurement": "Selectivity for CB1 over CB2", "setting": "[1]", "result": "> 50", "unit": "fold"},
      {"measurement": "Reversal of the cannabimimetic effects of Δ^9-THC (tetrad)", "setting": "[2]; 30 min before 30 mg/kg i.v. Δ^9-THC", "result": "without efficacy; also recorded: did not reverse any of the cannabimimetic effects of Δ^9-THC; also recorded: could not be reversed"},
      {"measurement": "Effects in tetrad tests by itself", "setting": "[2]; in combination with vehicle", "result": "did not produce any significant effects"}
    ]},
    {"molecule": "O=C(CCN1CCCCC1)NC1CCN(c2ncnc3c2nc(-c2ccccc2Cl)n3-c2ccc(Cl)cc2)CC1", "note": "[Compound 15, N-{1-[8-(2-Chlorophenyl)-9-(4-chlorophenyl)-9H-purin-6-yl]piperidin-4-yl}-3-(piperidin-1-yl)propanamide]", "values": [
      {"measurement": "Kb", "setting": "[3]", "result": 789, "unit": "nM"}
    ]},
    {"molecule": "O=S(=O)(NC1CCN(c2ncnc3c2nc(-c2ccccc2Cl)n3-c2ccc(Cl)cc2)CC1)C(F)(F)F", "note": "[Compound 18, N-{1-[8-(2-chlorophenyl)-9-(4-chlorophenyl)-9H-purin-6-yl]piperidin-4-yl,}-1,1,1-trifluoromethanesulfonamide]", "values": [
      {"measurement": "Activity in the calcium mobilization assay", "setting": "[3]", "result": "very active"}
    ]},
    {"molecule": "N-{1-[8-(2-chlorophenyl)-9-(4-chlorophenyl)-9H-purin-6-yl]piperidin-4-yl}aminosulfonamide [Compound 17]", "values": [
      {"measurement": "Activity in the calcium mobilization assay", "setting": "[3]", "result": "did not have significant activity"}
    ]}
  ]
}
